Experimental findings from ChEMBL document CHEMBL5126561, “New pyrazole-tetrazole hybrid compounds as potent α-amylase and non-enzymatic glycation inhibitors” (Bioorg Med Chem Lett, 2022) are described below.

One data set concerns the target Hemoglobin HbA (Homo sapiens, UniProt P68871+P69905). As to the kind of experiment: Inhibition of non-enzymatic glycation in hemoglobin (unknown origin) by spectrophotometric analysis. The class given is protein-complex assay.
Data set [1] in a line: Lipophilicity, logP of compound. The class given is physicochemical. The following applies: octanol/water.
The next data set deals with T1, Alpha amylase (Homo sapiens, UniProt P0DUB6).
T1 sequence (P0DUB6 whole entry): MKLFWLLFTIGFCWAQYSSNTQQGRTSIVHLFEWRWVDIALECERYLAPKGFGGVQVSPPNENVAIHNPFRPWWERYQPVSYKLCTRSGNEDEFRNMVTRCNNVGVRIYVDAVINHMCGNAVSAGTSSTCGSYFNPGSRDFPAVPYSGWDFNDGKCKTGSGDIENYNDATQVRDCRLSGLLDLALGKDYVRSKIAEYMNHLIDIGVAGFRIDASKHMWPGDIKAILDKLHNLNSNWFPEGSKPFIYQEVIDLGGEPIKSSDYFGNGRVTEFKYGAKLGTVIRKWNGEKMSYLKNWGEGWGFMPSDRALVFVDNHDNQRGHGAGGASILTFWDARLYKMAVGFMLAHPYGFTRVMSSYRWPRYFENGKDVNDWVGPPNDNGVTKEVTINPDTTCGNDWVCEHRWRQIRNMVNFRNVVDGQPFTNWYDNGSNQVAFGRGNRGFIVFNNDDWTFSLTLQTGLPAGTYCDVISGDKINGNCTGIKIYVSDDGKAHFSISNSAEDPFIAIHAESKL
The experiment in a line: Inhibition of alpha-amylase (unknown origin) assessed as reduction in conversion of starch to glucose preincubated for 10 mins followed by substrate addition and measured after 20 mins by DNSA reagent based spectrophotometric analysis.

The target of data set [2] is Alpha amylase (Homo sapiens) (UniProt P0DUB6). As to the kind of experiment: Potency index, ratio of acarbose IC50 to test compound IC50 for inhibition of alpha-amylase (unknown origin) assessed as reduction in conversion of starch to glucose preincubated for 10 mins followed by substrate addition and measured after 20 mins by DNSA reagent based spectrophotometric analysis. The following applies: time 30.0 min.

In data set [3] the target is Hemoglobin HbA (Homo sapiens) (UniProt P69905+P68871). As to the kind of experiment: Potency index, ratio of gallic acid IC50 to test compound IC50 for inhibition of non-enzymatic glycation in hemoglobin (unknown origin) by spectrophotometric analysis. The class given is protein-complex assay.
Chain of Hemoglobin HbA (Homo sapiens) (P68871 2-147 partner limits assumed): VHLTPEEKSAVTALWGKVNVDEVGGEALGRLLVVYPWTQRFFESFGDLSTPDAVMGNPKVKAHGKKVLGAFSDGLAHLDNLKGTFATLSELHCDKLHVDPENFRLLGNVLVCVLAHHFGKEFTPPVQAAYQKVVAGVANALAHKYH
Chain of Hemoglobin HbA (Homo sapiens) (P69905 2-142 limits assumed): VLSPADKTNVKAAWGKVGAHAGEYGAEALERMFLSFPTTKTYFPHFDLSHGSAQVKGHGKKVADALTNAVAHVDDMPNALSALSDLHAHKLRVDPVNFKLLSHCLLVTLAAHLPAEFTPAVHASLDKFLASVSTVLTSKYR

pIC50: −log10 of the molar value. Converted amounts (≈) assume the structure as drawn.

Chain of Hemoglobin HbA (P69905 whole entry): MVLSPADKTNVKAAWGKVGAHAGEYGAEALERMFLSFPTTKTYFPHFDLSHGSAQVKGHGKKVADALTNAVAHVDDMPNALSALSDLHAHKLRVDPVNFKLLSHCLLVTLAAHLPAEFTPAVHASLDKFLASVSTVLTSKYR
Chain of Hemoglobin HbA (P68871 whole entry): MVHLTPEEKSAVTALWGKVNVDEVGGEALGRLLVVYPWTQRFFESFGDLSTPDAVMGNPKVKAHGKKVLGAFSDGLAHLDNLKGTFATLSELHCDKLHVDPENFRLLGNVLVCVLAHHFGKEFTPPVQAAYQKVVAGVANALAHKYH

Turning to `Cc1cc(Cn2nnc(-c3ccccn3)n2)n[nH]1`, at Hemoglobin HbA, the negative logarithm of the IC50 (pIC50) is 2.71. The logP in data set [1] was 1.69. For the same compound, the IC50 on Alpha amylase turned out to be 0.95 mg/mL (≈ 3.94 mM).

As to `O=C(O)c1cc(O)c(O)c(O)c1` [GALLIC ACID], the negative logarithm of the IC50 (pIC50) at Hemoglobin HbA is 3.00.

At Hemoglobin HbA, `CCn1nc(Cn2nnc(-c3ccccn3)n2)cc1C` gave a negative-log IC50 (pIC50) of 2.60. Besides, the lipophilicity (logP) in data set [1] amounted to 2.08. On Alpha amylase, the IC50 turned out to be 0.54 mg/mL (≈ 2.01 mM).

Regarding `Cc1cc(Cn2nnnc2-c2ccccn2)n[nH]1`, the pIC50 on Hemoglobin HbA was 3.45. The results for the Ratio IC50 in data set [2] and in data set [3] were 70 and 2, respectively. In addition, in data set [1], the log partition coefficient (logP) came to 0.86. Also, the half-maximal inhibitory concentration (IC50) on Alpha amylase is reported as 4.82 10^-3mg/ml.

Regarding `Cc1cc(Cn2nnc(Cc3ccccc3)n2)n[nH]1`, the negative-log IC50 (pIC50) against Hemoglobin HbA is 2.97. Moreover, the log partition coefficient (logP) in data set [1] is 2.5. Besides, at Alpha amylase, the concentration for half-maximal inhibition (IC50) was 5.59 mg/mL (≈ 22 mM).

On to `Cc1cc(Cn2nnnc2Cc2ccccc2)n[nH]1`, for which, on Hemoglobin HbA, the pIC50 was 2.99. Further, the log partition coefficient (logP) in data set [1] turned out to be 1.62. Further, the IC50 at Alpha amylase turned out to be 1.97 mg/mL (≈ 7.75 mM).

As for `CCn1nc(Cn2nnnc2Cc2ccccc2)cc1C`, the pIC50 against Hemoglobin HbA is 2.92. Moreover, the Ratio IC50 in data set [2] was 15. This compound had a log partition coefficient (logP) in data set [1] of 2.1. For the same compound, the IC50 at Alpha amylase is 0.023 mg/mL (≈ 0.0815 mM).

`CCn1nc(Cn2nnnc2-c2ccccn2)cc1C`: the negative-log IC50 (pIC50) against Hemoglobin HbA is 3.65. Further, the figures for the Ratio IC50 in data set [2] and in data set [3] were 3010 and 2.8, respectively. Besides, the logP in data set [1] stood at 1.34. The half-inhibitory concentration (IC50) on Alpha amylase was 1.13 10^-4mg/ml.

`CCn1nc(Cn2nnc(Cc3ccccc3)n2)cc1C` had a pIC50 against Hemoglobin HbA of 2.71. In data set [1], the log partition coefficient (logP) worked out at 2.88. In addition, the IC50 on Alpha amylase was found to be 2.36 mg/mL (≈ 8.36 mM).
